From article PMC11794677, “Self‐Assembly of a Conjugate of Lipoic Acid With a Collagen‐Stimulating Pentapeptide Showing Cytocompatibility and Wound Healing Properties, and Chemical and Photolytic Disassembly” (Journal of Peptide Science, 2025)

Key:
RAW 264.7 cells = assay: Nitrite (inflammation) assay with Griess reagent; assay type: cell-based; details: 2 μg LPS, 24 h, different concentrations, absorbance 550 nm, ANOVA with Bonferroni correction
Method: To detect nitrite, the Griess reagent assay was used, following protocols described previously. Amounts 5 × 10^3 RAW 264.7 cells were seeded in a 96‐well plate and incubated for 24 h inside the cell incubator. After 24 h, the cells were washed three times with PBS and incubated in 100 μL of DMEM + 2 μg of LPS (lipopolysaccharide) for 24 h. After incubation in the presence of LPS, 100 μL of Griess reagent solution was added to each well and incubated for 10 min at room temperature. The resulting absorbance was measured at 550 nm using an Infinite F50 microplate reader (TECAN, Switzerland).
The Griess reagent assay was used as an indirect measure of the production of nitrite ions, an important species related to inflammation, by monitoring the presence of nitrites in media via colorimetric (UV‐vis absorbance) measurements. The assay was performed by incubating the cells in DMEM containing 2 μg of LPS with different concentrations of lipoyl‐KTTKS. Controls containing only LPS and RAW cells incubated in DMEM without LPS were also prepared.

tyrosinase = details: cited from earlier work
Excerpt: (§1) Here, we investigate the structural properties, biocompatibility and collagen‐stimulating activity of a novel peptide amphiphile comprising a conjugate of lipoic acid to pentapeptide KTTKS, termed lipoyl‐KTTKS (Scheme 1).

[1] = tested on: UV-induced collagenase (MMP-1); details: cited from earlier work
Excerpt: as §1

melanin synthesis = details: cited from earlier work
Excerpt: as §1

[2] = cited from earlier work
Excerpt: as §1

HDFa cells = assay: MTT cytocompatibility assay; assay type: cell-based, Human; details: 72 h incubation, concentrations up to 0.1 wt%, absorbance 560 nm, ANOVA, n = 3
Method: For the cytocompatibility assays, HDFa cells were cultivated in DMEM/F12 supplemented with 5% FBS, Glutamax, penicillin/streptomycin 100 IU/mL and incubated at 37°C within an atmosphere of 5% CO2. The RAW cells were cultured in DMEM with 10% FBS, Glutamax, penicillin/streptomycin 100 IU/mL and maintained under the same conditions as the HDFa cells.
To measure the cytocompatibility of lipoyl‐KTTKS, 24 h before the assay HDFa cells were cultivated in 96‐well plates with 1 × 10^4 cells/well with supplemented DMEM/F12. Then, the wells were washed three times with PBS, and cells were incubated for 72 h in media containing different concentrations of lipoyl‐KTTKS. After incubation, the cells were washed again three times with PBS and 100 μL of DMEM/F12 without phenol red + 5 μg/mL of MTT was added to each well. The plate containing cells in media containing MTT was incubated for 4 h inside an incubator at 37°C, protected from the light. After incubation, 100 μL of DMSO was added to each well to solubilize the resulting formazan crystals. The absorbance was measured at 560 nm using an Infinite F50 microplate reader (TECAN, Switzerland).

[3] = tested on: type I/III collagen production by HDFa cells; assay: Collagen quantification, picrosirius red (Direct red 80) staining; assay type: cell-based, Human; details: 72 h incubation, different concentrations, absorbance 490 nm, ANOVA, n = 3
Method: To quantify collagen production, HDFa cells were seeded at a confluency of 1 × 10^4 cells/well into 96‐well plates in DMEM/F12 + 5 μg/mL of insulin and incubated for 3 days in DMEM/F12 without supplements as control, or DMEM/F12 + different concentrations of lipoyl‐KTTKS and conventional supplements (ascorbic acid 1 mM, TGFβ1 0.025 ng/mL and insulin 10 μg/mL). After incubation, the cells were washed three times with PBS and were fixed with cold ethanol 70%. The plate was transferred to a −80°C ultra‐freezer for 10 min and washed with water to remove any residual ethanol. After fixation, the collagen was incubated overnight in a solution containing Direct red 1 mg/mL in picric acid at 4°C. After this final incubation, the fixed cells were washed with distilled water to remove any residual dye, and the collagen and cells were then treated with 1‐mM NaOH for 10 min at room temperature. The resulting absorbance was measured at 490 nm using an Infinite F50 microplate reader (TECAN, Switzerland).
Because of the great commercial interest in KTTKS pentapeptides in cosmetic products with proposed antiaging properties resulting from cellular matrix stimulation, collagen production assays were performed using the technique of picrosirius red (commercial name, Direct red 80) staining (UV/vis absorbance) measurements.

lipoyl‐KTTKS [peptide amphiphile comprising a conjugate of lipoic acid to pentapeptide KTTKS]
Production of nitrites compared with cells incubated only in DMEM (without LPS) (RAW 264.7 cells; n = 3): statistically significant increase
Production of nitrites compared with cells incubated only in DMEM (without LPS) (RAW 264.7 cells; n = 3, listed as lipoyl‐KTKKS): increase
Effect on tyrosinase activity (tyrosinase): inhibits
Effect on UV-induced collagenase (MMP-1) activity [1]: inhibits
Effect on melanin synthesis (melanin synthesis): inhibits
Cytocompatibility [2]: good cytocompatibility
Cytotoxicity (cell viability, MTT) (HDFa cells): does not present any statistically significant cytotoxicity
Collagen production compared with the control or conventional stimulants [3]: no statistically significant increase
